Results as given in ChEMBL document CHEMBL1145621, “Orally efficacious thrombin inhibitors with cyanofluorophenylacetamide as the P2 motif” (Bioorg Med Chem Lett, 2008).

Legend:
[1] = Oral bioavailability in rat; format: ADME, organism-based; conditions: in vivo
[2] = Half life in iv dosed dog; format: ADME, organism-based, Canis lupus familiaris; conditions: in vivo
[3] = Half life in rat at 30 mg/kg, po; format: ADME, organism-based; parameters: dose 30 mg/kg, route oral; conditions: in vivo
[4] = Volume of distribution at steady state in dog at 1 mg/kg, iv; format: ADME, organism-based, Canis lupus familiaris; parameters: dose 1 mg/kg, route intravenous; conditions: in vivo, read-out: Vdss
[5] = Half life in dog at 1 mg/kg, iv; format: ADME, organism-based, Canis lupus familiaris; parameters: dose 1 mg/kg, route intravenous; conditions: in vivo
[6] = Volume of distribution at steady state in rat at 3 mg/kg, iv; format: ADME, organism-based; parameters: dose 3 mg/kg, route intravenous; conditions: in vivo, read-out: Vdss
[7] = Half life in dog at 10 mg/kg, po; format: ADME, organism-based, Canis lupus familiaris; parameters: dose 10 mg/kg, route oral; conditions: in vivo
[8] = Metabolic stability in rat liver microsomes after 10 mins; format: ADME, Microsome; conditions: read-out: Stability
[9] = Cmax in rat at 30 mg/kg, po; format: ADME, organism-based; parameters: dose 30 mg/kg, route oral; conditions: in vivo
[10] = Clearance in dog at 1 mg/kg, iv; format: ADME, organism-based, Canis lupus familiaris; parameters: dose 1 mg/kg, route intravenous; conditions: in vivo
[11] = Bioavailability in rat at 30 mg/kg, po; format: ADME, organism-based; conditions: in vivo
[12] = Cmax in dog at 10 mg/kg, po; format: ADME, organism-based, Canis lupus familiaris; parameters: dose 10 mg/kg, route oral; conditions: in vivo
[13] = Half life in rat at 3 mg/kg, iv; format: ADME, organism-based; parameters: dose 3 mg/kg, route intravenous; conditions: in vivo
[14] = Clearance in rat at 3 mg/kg, iv; format: ADME, organism-based; parameters: dose 3 mg/kg, route intravenous; conditions: in vivo
[15] = Bioavailability in dog at 10 mg/kg, po; format: ADME, organism-based, Canis lupus familiaris; conditions: in vivo
[16] = Metabolic stability in dog liver microsomes after 10 mins; format: ADME, Canis lupus familiaris, Microsome; conditions: read-out: Stability
[17] = Cmax in po dosed dog; format: ADME, organism-based, Canis lupus familiaris; parameters: route oral; conditions: in vivo
[18] = Cmax in rat at 10 mg/kg, po; format: ADME, organism-based; parameters: dose 10 mg/kg, route oral; conditions: in vivo
[19] = Volume of distribution at steady state in rat at 2 mg/kg, iv; format: ADME, organism-based; parameters: dose 2 mg/kg, route intravenous; conditions: in vivo, read-out: Vdss
[20] = Half life in rat at 2 mg/kg, iv; format: ADME, organism-based; parameters: dose 2 mg/kg, route intravenous; conditions: in vivo
[21] = Bioavailability in rat at 10 mg/kg, po; format: ADME, organism-based; conditions: in vivo
[22] = Clearance in rat at 2 mg/kg, iv; format: ADME, organism-based; parameters: dose 2 mg/kg, route intravenous; conditions: in vivo
[23] = Metabolic stability in human liver microsomes after 10 mins; format: ADME, Microsome; conditions: read-out: Stability
[24] = Oral bioavailability in dog; format: ADME, organism-based, Canis lupus familiaris; conditions: in vivo

SMILES | bioavailability [1] | half-life [2] | Vd [4] | half-life [5] | half-life [7] | remaining at 10 min [8] | clearance [10] | Cmax [12] | bioavailability [15] | remaining at 10 min [16] | further results
Cc1ccc(C(F)(F)CNc2ccc(C#N)c(CC(=O)NCCONC(=N)N)c2F)nc1 | – | – | 3.6 L/kg | 3.6 h | 2.5 h | > 95% | 18 mL/min/kg | 2800 nM | 45% | – | half-life [3]: 2.5 h; Vd [6]: 2.3 L/kg; Cmax [9]: 250 nM; bioavailability [11]: 2%; half-life [13]: 1.3 h; clearance [14]: 30 mL/min/kg
Cc1nc(N)ccc1CNC(=O)Cc1c(C#N)ccc(NCC(F)(F)c2ccccn2)c1F | – | 1.1 h | – | – | – | – | 34 mL/min/kg | – | 26% | 100% | Cmax [17]: 800 nM
N#Cc1ccc(NCC(F)(F)c2ccccn2)c(F)c1CC(=O)NCCONC(=N)N | – | – | 2.9 L/kg | 2.9 h | 2.5 h | > 95% | 13 mL/min/kg | 3500 nM | 49% | ≥ 86% | Cmax [18]: 30 nM; Vd [19]: 6 L/kg; half-life [20]: 1 h; bioavailability [21]: 2%; clearance [22]: 67 mL/min/kg; remaining at 10 min [23]: ≥ 86%

Now from value to compound, other results behind:

bioavailability [1] | half-life [2] | Vd [4] | half-life [5] | half-life [7] | remaining at 10 min [8] | clearance [10] | Cmax [12] | bioavailability [15] | remaining at 10 min [16] | SMILES | further results
24% | 4.4 h | – | – | – | – | – | – | – | – | CCCN(Cc1ccoc1)C(=O)c1cc(C)cc(OCC2(CON=C(N)N)CC2)c1 | –
– | – | 2.9 L/kg | 2.8 h | 3.2 h | – | 15 mL/min/kg | 3300 nM | 65% | – | Cc1cccc(C(F)(F)CNc2ccc(C#N)c(CC(=O)NCCONC(=N)N)c2F)n1 | –
6% | – | – | – | – | – | – | – | – | – | Cc1cccc(S(=O)(=O)Nc2ccc(C)n(CC(=O)NCCONC(=N)N)c2=O)c1 | bioavailability [24]: 24%
